Key:
[1] = biological target: T1, RBL-1 cell 5-lipoxygenase (Rattus norvegicus, UniProt P12527); assay: RBL-1 cell 5-lipoxygenase, cell homogenate supernatant (Procedure II); assay type: biochemical; conditions: RBL-1 homogenate; for inhibition at 3 µM: read-out: PROC. II % INHIBITION 5-LO; for IC50: read-out: PROC. II IC50 5-LO
T1 construct: the supernatant was saved as the source of enzymes; endogenous in cells; host or cells: RBL-1 rat basophilic leukemia cells, homogenate supernatant
T1 sequence (P12527 1-673): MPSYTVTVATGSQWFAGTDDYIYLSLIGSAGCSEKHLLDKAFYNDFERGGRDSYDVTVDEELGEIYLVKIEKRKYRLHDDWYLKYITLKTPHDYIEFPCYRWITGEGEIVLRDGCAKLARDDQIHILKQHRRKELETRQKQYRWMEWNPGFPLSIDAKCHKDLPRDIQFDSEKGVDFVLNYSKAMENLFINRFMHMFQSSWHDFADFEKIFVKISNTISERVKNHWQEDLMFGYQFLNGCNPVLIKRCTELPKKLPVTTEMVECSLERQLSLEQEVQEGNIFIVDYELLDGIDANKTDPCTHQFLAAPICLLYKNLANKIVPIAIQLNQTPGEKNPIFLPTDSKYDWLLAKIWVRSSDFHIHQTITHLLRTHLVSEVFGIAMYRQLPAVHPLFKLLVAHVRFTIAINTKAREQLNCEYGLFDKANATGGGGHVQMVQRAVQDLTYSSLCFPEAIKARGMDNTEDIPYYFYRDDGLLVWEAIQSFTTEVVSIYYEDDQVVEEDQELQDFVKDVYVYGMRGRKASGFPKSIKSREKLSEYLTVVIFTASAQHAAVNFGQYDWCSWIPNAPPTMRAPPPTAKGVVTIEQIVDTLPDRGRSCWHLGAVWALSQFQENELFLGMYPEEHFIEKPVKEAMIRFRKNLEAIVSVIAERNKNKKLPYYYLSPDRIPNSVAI
Procedure: RBL-1 cell 5-lipoxygenase and cyclooxygenase
Rat basophilic leukemia cells (RBL-1; 5×10^7 viable cells/mL) were disrupted by homogenization on ice (four 20 sec bursts) with a Brinkman polytron. Complete cell breakage was verified microscopically. The homogenate was then centrifuged at 10,000×g for 48 minutes at 4° C. The pellet was discarded and the supernatant was saved as the source of enzymes. The supernatant was pre-incubated for five minutes at 37° C. in the presence of 2 mM of CaCl2 and compound or vehicle (1% DMSO). The conversion of AA into 5-LO products was initiated by adding 10 μL (50 μCi) of 1-^14 C-AA to each tube and incubated at 37° C. for 20 minutes. The reaction was stopped by adjusting the pH of each sample to 3 to 3.5 with 2M formic acid. Samples were extracted with three volumes of chloroform to isolate the products of 5-LO formed during the reaction. Fractions were dried under nitrogen, then resuspended in 40 μL of chloroform and spotted onto silica gel HL plates. The plates were developed in A-9 solvent. The dried plates were analyzed using a Bioscan Imaging TLC scanner to determine the percentage of radiolabelled AA converted to 5-HETE in each sample.

[2] = biological target: T2, Sheep seminal vesicle cyclooxygenase (Ovis aries, UniProt P05979); assay: Sheep seminal vesicle cyclooxygenase (Procedure I); assay type: biochemical; conditions: read-out: PROC. I % INHIB CO
T2 construct: Sheep seminal vesicle (SSV) cyclooxygenase (95% pure); purchased Biomol (Plymouth Meeting, Pa.); host or cells: sheep seminal vesicle
T2 sequence (P05979 25-600): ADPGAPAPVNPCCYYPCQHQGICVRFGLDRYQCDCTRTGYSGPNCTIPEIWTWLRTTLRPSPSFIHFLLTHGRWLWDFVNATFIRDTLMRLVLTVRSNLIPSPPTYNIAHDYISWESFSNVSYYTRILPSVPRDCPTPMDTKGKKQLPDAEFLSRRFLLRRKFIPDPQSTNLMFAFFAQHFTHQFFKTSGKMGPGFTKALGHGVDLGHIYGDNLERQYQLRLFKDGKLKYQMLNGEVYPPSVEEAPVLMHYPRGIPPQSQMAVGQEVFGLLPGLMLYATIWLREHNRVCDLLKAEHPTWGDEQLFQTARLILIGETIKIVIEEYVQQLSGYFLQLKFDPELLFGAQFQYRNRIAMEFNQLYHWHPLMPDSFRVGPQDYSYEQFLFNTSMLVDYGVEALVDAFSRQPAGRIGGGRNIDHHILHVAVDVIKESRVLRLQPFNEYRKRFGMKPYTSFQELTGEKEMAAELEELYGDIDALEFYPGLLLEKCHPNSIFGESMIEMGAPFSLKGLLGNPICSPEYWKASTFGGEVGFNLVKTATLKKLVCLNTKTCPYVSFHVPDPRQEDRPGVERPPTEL
Procedure: Sheep seminal vesicle cyclooxygenase Sheep seminal vesicle (SSV) cyclooxygenase (95% pure, prostaglandin endoperoxide synthase, EC 1.14.99.1 specific activity 24 units/mg protein) obtained as a lyophilized powder from Biomol (Plymouth Meeting, Pa.) was reconstituted at a concentration of 59 mg/mL in Hanks' Balanced Salt Solution (HBSS). The enzyme was divided into 200 μL aliquots, snap frozen with liquid N2, and stored at -70° C. unitl immediately prior to use. Measurements of CO activity were carried out in polypropylene tubes containing 495 μL of HBSS to which was added 5 μL of inhibitor or dimethylsulfoxide (DMSO; vehicle control) and 6 μL of SSV CO solution. The tubes were mixed on a vortex shaker, preincubated for 5 min at 37° C. prior to the initiation of the reaction. The reaction was started by the addition of [^14 C]-arachidonic acid (1-^14 C-AA, Amersham, Arlington Heights, Il) in 10 μL of methanol. Tubes were again vortexed and incubated in a water bath for 20 minutes after which the tubes were removed and the reaction stopped by acidification with the addition of 1 mL 2M formic acid. Lipophilic products were extracted with 3 mL chloroform and concentrated to dryness under N2. Each pellet was reconstituted with 40 μL of chloroform and spotted on a Whatman Silicon thin-layer chromatography plate and developed in a chromatography tank containing A-9 solvent (11:5:2:1 V:V:V:V, ethyl acetate:trimethylpentane:acetic acid:double distilled-H2 O). Radioactive cyclooxygenase products (prostaglandin D2, prostaglandin E2, etc.) were measured using a Bioscan System 200 Imaging Scanner. Inhibition of enzyme activity was calculated by comparing the areas under the curve produced in the presence or absence of test compound.

Row | SMILES | inhibition at 3 µM [1] [%] | inhibition at 3 µM [2] [%] | IC50 [1] [nM]
1 | COc1ccc(-n2nc(CSC(=S)N(C)O)c(Cl)c2-c2ccc(Cl)cc2)cc1 [1-C] | 91 | 46 | 
2 | COc1ccc(-n2nc(CSC(=S)N(O)C(C)C)c(Cl)c2-c2ccc(Cl)cc2)cc1 [1-D] | 70 | 31 | 70
3 | COc1ccc(-n2nc(CSC(=S)N(O)C(C)C)cc2-c2ccc(Cl)cc2)cc1 [1-B] | 100 | 39 | 570

Next, values leading:

Row | inhibition at 3 µM [1] [%] | inhibition at 3 µM [2] [%] | IC50 [1] [nM] | SMILES
4 | 91 | 39 |  | COc1ccc(-n2nc(CSC(=S)N(C)O)c(Cl)c2-c2ccc(C)cc2)cc1 [1-H]
5 | 73 | 0 | 40 | COc1ccc(-n2nc(CSC(=S)N(O)C(C)C)c(Br)c2-c2ccc(Cl)cc2)cc1 [1-E]
6 | 79 | 36 | 20 | COc1ccc(-n2nc(CSC(=S)N(O)C(C)C)cc2-c2ccc(C)cc2)cc1 [1-G]

From patent US5298521A, “1,5-diphenyl-3-pyrazolylalkyl-N-hydroxydithiocaramates, compositions and use” (Ortho Pharmaceutical Corporation, priority 1993, dated 1994)
